# Laboratory results taken from US20040058956A1, “Pharmaceutical composition having an improved water solubility” (priority 2000, published 2004).
row,Compound,melting point
1,"Fc1ccc(/C=C/c2nc(COc3cccc(CCCn4ccnn4)c3)co2)cc1 [B3, 1-{3-[3-({2-[(E)-2-(4-fluorophenyl)ethenyl]-1,3-oxazol-4-yl}methoxy)phenyl]propyl}-1H-1,2,3-triazole]",105 to 106 °C
2,"Fc1ccc(/C=C/c2nc(COc3ccc(CCCCn4ccnn4)cc3)co2)c(F)c1 [B7, 1-{4-[4-({2-[(E)-2-(2,4-difluorophenyl)ethenyl]-1,3-oxazol-4-yl}methoxy)phenyl]butyl}-1H-1,2,3-triazole]",115 to 117 °C
3,"Fc1ccc(/C=C/c2nc(COc3cccc(CCCn4ccnn4)c3)co2)c(F)c1 [B8, 1-{3-[3-({2-[(E)-2-(2,4-difluorophenyl)ethenyl]-1,3-oxazol-4-yl}methoxy)phenyl]propyl}-1H-1,2,3-triazole]",89 to 90 °C
4,"Cc1ccc(/C=C/c2nc(COc3ccc(CCCCn4ccnc4CCO)cc3)co2)cc1 [B10, 2-[1-[4-[4-[[2-[(E)-2-(4-methylphenyl)ethenyl]-1,3-oxazol-4-yl]methoxy]phenyl]butyl]-1H-imidazol-2-yl]-1-ethanol]",108 to 109 °C
5,"OCCc1nccn1CCCCc1ccc(OCc2coc(/C=C/c3ccc(F)cc3)n2)cc1 [B14, 2-(1-{4-[4-({2-[(E)-2-(4-fluorophenyl)ethenyl]-1,3-oxazol-4-yl}methoxy)phenyl]butyl}-1H-imidazol-2-yl)-1-ethanol]",130 to 132 °C
6,"OCCc1nccn1CCCCc1ccc(OCc2coc(/C=C/c3ccc(Cl)cc3)n2)cc1 [B15, 2-[1-[4-[4-[[2-[(E)-2-(4-chlorophenyl)ethenyl]-1,3-oxazol-4-yl]methoxy]phenyl]butyl]-1H-imidazol-2-yl]-1-ethanol]",127 to 128 °C
7,"Cc1cccc(/C=C/c2nc(COc3ccc(CCCCn4ccnc4CC(O)CO)cc3)co2)c1 (stereo not shown) [B22, 3-(1-{4-[4-({2-[(E)-2-(3-methylpheyl)ethenyl]-1,3-oxazol-4-yl}methoxy)phenyl]butyl}-1H-imidazol-2-yl)-1,2-propanediol]",102 to 104 °C
8,"Cc1ccccc1/C=C/c1nc(COc2ccc(CCCCn3ccnc3CCO)cc2)co1 [Reference Example B12, 2-[1-[4-[4-[[2-[(E)-2-(2-methylphenyl)ethenyl]-1,3-oxazol-4-yl]methoxy]phenyl]butyl]-1H-imidazol-2-yl]-1-ethanol]",91 to 93 °C
9,"OCCc1nccn1CCCCc1ccc(OCc2coc(/C=C/c3ccc(F)cc3F)n2)cc1 [Reference Example B19, 2-[1-[4-[4-[[2-[(E)-2-(2,4-difluorophenyl)ethenyl]-1,3-oxazol-4-yl]methoxy]phenyl]butyl]-1H-imidazol-2-yl]-1-ethanol]",93 to 95 °C
10,"OCC(O)Cc1nccn1CCCCc1ccc(OCc2coc(/C=C/c3ccc(F)cc3F)n2)cc1 (stereo not shown) [Reference Example B26, 3-(1-{4-[4-({2-[(E)-2-(2,4-difluorophenyl)ethenyl]-1,3-oxazol-4-yl}methoxy)phenyl]butyl}-1H-imidazol-2-yl)-1,2-propanediol]",126 to 128 °C

# Further lines, results first:
row,melting point,Compound
1,157 to 158 °C,"FC(F)(F)c1ccc(/C=C/c2nc(COc3ccc(CCCn4ccnn4)cc3)co2)cc1 [B5, 1-(3-{4-[(2-{(E)-2-[4-(trifluoromethyl)phenyl]ethenyl}-1,3-oxazol-4-yl)methoxy]phenyl}propyl)-1H-1,2,3-triazole]"
2,109 to 111 °C,"Cc1cccc(/C=C/c2nc(COc3ccc(CCCCn4ccnc4CCO)cc3)co2)c1 [B11, 2-[1-[4-[4-[[2-[(E)-2-(3-methylphenyl)ethenyl]-1,3-oxazol-4-yl]methoxy]phenyl]butyl]-1H-imidazol-2-yl]-1-ethanol]"
3,94 to 95 °C,"CCc1ccc(/C=C/c2nc(COc3ccc(CCCCn4ccnc4CCO)cc3)co2)cc1 [B13, 2-[1-[4-[4-[[2-[(E)-2-(4-ethylphenyl)ethenyl]-1,3-oxazol-4-yl]methoxy]phenyl]butyl]-1H-imidazol-2-yl]-1-ethanol]"
4,149 to 150 °C,"OCCc1nccn1CCCCc1ccc(OCc2coc(/C=C/c3ccc(Br)cc3)n2)cc1 [B16, 2-[1-[4-[4-[[2-[(E)-2-(4-bromophenyl)ethenyl]-1,3-oxazol-4-yl]methoxy]phenyl]butyl]-1H-imidazol-2-yl]-1-ethanol]"
5,94 to 96 °C,"OCCc1nccn1CCCc1ccc(OCc2coc(/C=C/c3ccc(F)cc3F)n2)cc1 [B20, 2-[1-[3-[4-[[2-[(E)-2-(2,4-difluorophenyl)ethenyl]-1,3-oxazol-4-yl]methoxy]phenyl]propyl]-1H-imidazol-2-yl]-1-ehtanol]"
6,114 to 116 °C,"OCC(O)Cc1nccn1CCCCc1ccc(OCc2coc(/C=C/c3ccc(F)cc3)n2)cc1 (stereo not shown) [B23, 3-(1-{4-[4-({2-[(E)-2-(4-fluorophenyl)ethenyl]-1,3-oxazol-4-yl}methoxy)phenyl]butyl}-1H-imidazol-2-yl)-1,2-propanediol]"
7,142 to 143 °C,"OCC(O)Cc1nccn1CCCCc1ccc(OCc2coc(/C=C/c3ccc(C(F)(F)F)cc3)n2)cc1 (stereo not shown) [B24, 3-[1-(4-{4-[(2-{(E)-2-{4-(trifluoromethyl)phenyl}ethenyl}-1,3-oxazol-4-yl)methoxy]phenyl}butyl]-1H-imidazol-2-yl]-1,2-propanediol]"
8,102 to 104 °C,"OCC(O)Cc1nccn1CCCc1cccc(OCc2coc(/C=C/c3ccc(C(F)(F)F)cc3)n2)c1 (stereo not shown) [B25, 3-[1-(3-{3-[(2-{(E)-2-[4-(trifluoromethyl)phenyl]ethenyl}-1,3-oxazol-4-yl)methoxy]phenyl}propyl)-1H-imidazol-2-yl]-1,2-propanediol]"
9,92 to 94 °C,"OCC(O)Cc1nccn1CCCc1cccc(OCc2coc(/C=C/c3ccc(F)cc3F)n2)c1 (stereo not shown) [B27, 3-(1-{3-[3-({2-[(E)-2-(2,4-difluorophenyl)ethenyl]-1,3-oxazol-4-yl}methoxy)phenyl]propyl}1H-imidazol-2-yl)-1,2-propanediol]"
10,123 to 125 °C,"OCC(O)Cc1nccn1CCCCc1ccc(OCc2coc(/C=C/c3c(F)cccc3F)n2)cc1 (stereo not shown) [B28, 3-[1-[4-[4-[[2-[(E)-2-(2,6-difluorophenyl)ethenyl]-1,3-oxazol-4-yl]methoxy]phenyl]butyl]-1H-imidazol-2-yl]-1,2-propanediol]"
11,124 to 125 °C,"Fc1ccc(/C=C/c2nc(COc3ccc(CCCCn4ccnn4)cc3)co2)cc1 [Reference Example B2, 1-{4-[4-({2-[(E)-2-(4-fluorophenyl)ethenyl]-1,3-oxazol-4-yl}methoxy)phenyl]butyl}-1H-1,2,3-triazole]"
12,115 to 116 °C,"FC(F)(F)c1ccc(/C=C/c2nc(COc3cccc(CCCn4ccnn4)c3)co2)cc1 [Reference Example B6, 1-(3-{3-[(2-{(E)-2-[4-(trifluoromethyl)phenyl]ethenyl}-1,3-oxazol-4-yl)methoxy]phenyl}propyl)-1H-1,2,3-triazole]"
